Test results from patent US20100267561A1, “HERBICIDAL PYRIDAZINONE DERIVATIVES” (priority 2007, published 2010).

Assays:
Format in all cases: in vivo
[1] = system: velvetleaf (Abutilon theophrasti); assay: Test A pre-/postemergence plant response
How it was run: (§1)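 Seeds in loam soil/sand blend treated preemergence by directed soil spray, with simultaneous postemergence spray on 2–10 cm plants at one- to two-leaf stage; compounds in non-phytotoxic solvent with surfactant. Injury visually rated versus untreated controls after about 10 days in greenhouse, 0 (no effect) to 100 (complete control).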

[2] = system: wheat (Triticum aestivum); assay: Test A pre-/postemergence plant response
How it was run: as §1

[3] = system: giant foxtail (Setaria faberi); assay: Test A pre-/postemergence plant response
How it was run: as §1

[4] = system: annual bluegrass (Poa annua); assay: Test C pre-/postemergence plant response; details: Preemergence
How it was run: (§2)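 Seeds are planted and sprayed preemergence, while established plants at the 1- to 4-leaf stage (2 to 18 cm) receive postemergence sprays of the same surfactant-containing, non-phytotoxic solvent formulation. After 15 to 25 days under controlled conditions, injury is scored visually from 0 (no effect) to 100 (complete control).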

[5] = system: spring barley (Hordeum vulgare); assay: Test C pre-/postemergence plant response; details: Preemergence
How it was run: as §2

[6] = system: green foxtail (Setaria viridis); assay: Test C pre-/postemergence plant response; details: Preemergence
How it was run: as §2

[7] = system: winter barley (Hordeum vulgare); assay: Test C pre-/postemergence plant response; details: Preemergence
How it was run: as §2

[8] = system: blackgrass (Alopecurus myosuroides); assay: Test C pre-/postemergence plant response; details: Preemergence
How it was run: as §2

[9] = system: wild mustard (Sinapis arvensis); assay: Test C pre-/postemergence plant response; details: Preemergence
How it was run: as §2

[10] = system: winter wheat (Triticum aestivum); assay: Test C pre-/postemergence plant response; details: Preemergence
How it was run: as §2

[11] = system: spring wheat (Triticum aestivum); assay: Test C pre-/postemergence plant response; details: Preemergence
How it was run: as §2

[12] = system: pigweed (Amaranthus retroflexus); assay: Test C pre-/postemergence plant response; details: Preemergence
How it was run: as §2

[13] = system: canarygrass (Phalaris minor); assay: Test C pre-/postemergence plant response; details: Preemergence
How it was run: as §2

[14] = system: Italian ryegrass (Lolium multiflorum); assay: Test C pre-/postemergence plant response; details: Preemergence
How it was run: as §2

[15] = system: windgrass (Apera spica-venti); assay: Test C pre-/postemergence plant response; details: Preemergence
How it was run: as §2

[16] = Postemergence, 125 g ai/ha, 0 to 100 scale, 0 no effect, 100 complete control
[17] = Postemergence, 500 g ai/ha, 0 to 100 scale, 0 no effect, 100 complete control
[18] = Preemergence, 125 g ai/ha, 0 to 100 scale (0 no effect, 100 complete control)
[19] = Preemergence, 500 g ai/ha, 0 to 100 scale (0 no effect, 100 complete control)
[20] = 8 g ai/ha, scale 0 to 100 (0 no effect, 100 complete control)
[21] = 16 g ai/ha, scale 0 to 100 (0 no effect, 100 complete control)
[22] = 31 g ai/ha, scale 0 to 100 (0 no effect, 100 complete control)
[23] = 62 g ai/ha, scale 0 to 100, 0 no effect, 100 complete control
[24] = Postemergence, 31 g ai/ha, 0 to 100 scale, 0 no effect, 100 complete control
[25] = Preemergence, 31 g ai/ha, 0 to 100 scale, 0 is no effect, 100 is complete control

## CCc1cc(-c2ccc(Cl)cc2)nn1-c1c(O)cnn(C)c1=O [Compound 21]
[1]; [16]
  Plant response rating, Velvetleaf: 0
[1]; [17]
  Plant response rating, Velvetleaf: 0
[1]; [18]
  Plant response rating, Velvetleaf: 0
[1]; [19]
  Plant response rating, Velvetleaf: 0
[2]; [16]
  Plant response rating, Wheat: 60
[2]; [17]
  Plant response rating, Wheat: 80
[2]; [18]
  Plant response rating, Wheat: 90
[2]; [19]
  Plant response rating, Wheat: 100
[3]; [16]
  Plant response rating, Foxtail, Giant: 100
[3]; [17]
  Plant response rating, Foxtail, Giant: 100
[3]; [18]
  Plant response rating, Foxtail, Giant: 100
[3]; [19]
  Plant response rating, Foxtail, Giant: 100
[4]; [20]
  Plant response rating, Bluegrass: 0
[4]; [21]
  Plant response rating, Bluegrass: 0
[5]; [20]
  Plant response rating, Barley, Spring: 20
[5]; [21]
  Plant response rating, Barley, Spring: 35
[5]; [22]
  Plant response rating, Barley, Spring: 60
[5]; [23]
  Plant response rating, Barley, Spring: 75
[6]; [20]
  Plant response rating, Foxtail, Green: 50
[6]; [21]
  Plant response rating, Foxtail, Green: 100
[6]; [22]
  Plant response rating, Foxtail, Green: 100
[6]; [23]
  Plant response rating, Foxtail, Green: 100
[7]; [20]
  Plant response rating, Barley, Winter: 20
[7]; [21]
  Plant response rating, Barley, Winter: 40
[7]; [22]
  Plant response rating, Barley, Winter: 50
[7]; [23]
  Plant response rating, Barley, Winter: 75
[8]; [20]
  Plant response rating, Blackgrass: 95
[8]; [21]
  Plant response rating, Blackgrass: 98
[8]; [22]
  Plant response rating, Blackgrass: 100
[8]; [23]
  Plant response rating, Blackgrass: 100
[9]; [20]
  Plant response rating, Mustard, Wild: 0
[9]; [21]
  Plant response rating, Mustard, Wild: 0
[9]; [22]
  Plant response rating, Mustard, Wild: 0
[9]; [23]
  Plant response rating, Mustard, Wild: 0
[10]; [20]
  Plant response rating, Wheat, Winter: 0
[10]; [21]
  Plant response rating, Wheat, Winter: 50
[10]; [22]
  Plant response rating, Wheat, Winter: 60
[10]; [23]
  Plant response rating, Wheat, Winter: 95
[11]; [20]
  Plant response rating, Wheat, Spring: 30
[11]; [21]
  Plant response rating, Wheat, Spring: 40
[11]; [22]
  Plant response rating, Wheat, Spring: 60
[11]; [23]
  Plant response rating, Wheat, Spring: 90
[12]; [20]
  Plant response rating, Pigweed: 0
[12]; [21]
  Plant response rating, Pigweed: 0
[12]; [22]
  Plant response rating, Pigweed: 0
[12]; [23]
  Plant response rating, Pigweed: 0
[13]; [20]
  Plant response rating, Canarygrass: 65
[13]; [21]
  Plant response rating, Canarygrass: 75
[13]; [22]
  Plant response rating, Canarygrass: 90
[13]; [23]
  Plant response rating, Canarygrass: 100
[14]; [20]
  Plant response rating, Ryegrass, Italian: 98
[14]; [21]
  Plant response rating, Ryegrass, Italian: 100
[14]; [22]
  Plant response rating, Ryegrass, Italian: 100
[14]; [23]
  Plant response rating, Ryegrass, Italian: 100
[15]; [20]
  Plant response rating, Windgrass: 100
[15]; [21]
  Plant response rating, Windgrass: 100
[15]; [22]
  Plant response rating, Windgrass: 100
[15]; [23]
  Plant response rating, Windgrass: 100

## Cc1cc(-c2ccc(Cl)cc2)nn1-c1c(OC(=O)c2cccc(Cl)c2)cnn(C)c1=O [Compound 32]
[1]; [24]
  Plant response rating, Velvetleaf: 0
[1]; [16]
  Plant response rating, Velvetleaf: 0
[1]; [25]
  Plant response rating, Velvetleaf: 0
[1]; [18]
  Plant response rating, Velvetleaf: 10
[2]; [24]
  Plant response rating, Wheat: 0
[2]; [16]
  Plant response rating, Wheat: 20
[2]; [25]
  Plant response rating, Wheat: 0
[2]; [18]
  Plant response rating, Wheat: 60
[3]; [24]
  Plant response rating, Foxtail, Giant: 10
[3]; [16]
  Plant response rating, Foxtail, Giant: 90
[3]; [25]
  Plant response rating, Foxtail, Giant: 90
[3]; [18]
  Plant response rating, Foxtail, Giant: 100
[4]; [20]
  Plant response rating, Bluegrass: 0
[4]; [21]
  Plant response rating, Bluegrass: 0
[4]; [22]
  Plant response rating, Bluegrass: 0
[4]; [23]
  Plant response rating, Bluegrass: 20
[5]; [20]
  Plant response rating, Barley, Spring: 0
[5]; [21]
  Plant response rating, Barley, Spring: 0
[5]; [22]
  Plant response rating, Barley, Spring: 25
[5]; [23]
  Plant response rating, Barley, Spring: 75
[6]; [20]
  Plant response rating, Foxtail, Green: 40
[6]; [21]
  Plant response rating, Foxtail, Green: 75
[6]; [22]
  Plant response rating, Foxtail, Green: 100
[6]; [23]
  Plant response rating, Foxtail, Green: 100
[7]; [20]
  Plant response rating, Barley, Winter: 0
[7]; [21]
  Plant response rating, Barley, Winter: 0
[7]; [22]
  Plant response rating, Barley, Winter: 20
[7]; [23]
  Plant response rating, Barley, Winter: 65
[8]; [22]
  Plant response rating, Blackgrass: 75
[8]; [23]
  Plant response rating, Blackgrass: 98
[9]; [20]
  Plant response rating, Mustard, Wild: 0
[9]; [21]
  Plant response rating, Mustard, Wild: 0
[9]; [22]
  Plant response rating, Mustard, Wild: 0
[10]; [20]
  Plant response rating, Wheat, Winter: 0
[10]; [21]
  Plant response rating, Wheat, Winter: 20
[10]; [22]
  Plant response rating, Wheat, Winter: 35
[10]; [23]
  Plant response rating, Wheat, Winter: 65
[11]; [20]
  Plant response rating, Wheat, Spring: 0
[11]; [21]
  Plant response rating, Wheat, Spring: 25
[11]; [22]
  Plant response rating, Wheat, Spring: 60
[11]; [23]
  Plant response rating, Wheat, Spring: 98
[12]; [20]
  Plant response rating, Pigweed: 0
[12]; [21]
  Plant response rating, Pigweed: 0
[12]; [22]
  Plant response rating, Pigweed: 0
[12]; [23]
  Plant response rating, Pigweed: 0
[13]; [20]
  Plant response rating, Canarygrass: 0
[13]; [21]
  Plant response rating, Canarygrass: 0
[13]; [22]
  Plant response rating, Canarygrass: 75
[13]; [23]
  Plant response rating, Canarygrass: 90
[14]; [20]
  Plant response rating, Ryegrass, Italian: 0
[14]; [21]
  Plant response rating, Ryegrass, Italian: 20
[14]; [23]
  Plant response rating, Ryegrass, Italian: 75
[15]; [20]
  Plant response rating, Windgrass: 0
[15]; [21]
  Plant response rating, Windgrass: 0
[15]; [22]
  Plant response rating, Windgrass: 0
[15]; [23]
  Plant response rating, Windgrass: 75
